Assay results taken from article PMC9921777, “Coumarin-Based Sulfonamide Derivatives as Potential DPP-IV Inhibitors: Pre-ADME Analysis, Toxicity Profile, Computational Analysis, and In Vitro Enzyme Assay” (Molecules, 2023).

How the values were obtained:
DPP-IV enzyme = DPP-IV enzyme (Homo sapiens, UniProt P27487); assay: In vitro DPP-IV enzyme inhibition assay (Cayman Chemical kit, item 700210); conditions: for inhibition at 250 µM: read-out: % Inhibition (at Conc.)
DPP-IV = DPP-IV enzyme assay of coumarin; cited from earlier work

Sequence of DPP-IV enzyme (P27487 whole entry): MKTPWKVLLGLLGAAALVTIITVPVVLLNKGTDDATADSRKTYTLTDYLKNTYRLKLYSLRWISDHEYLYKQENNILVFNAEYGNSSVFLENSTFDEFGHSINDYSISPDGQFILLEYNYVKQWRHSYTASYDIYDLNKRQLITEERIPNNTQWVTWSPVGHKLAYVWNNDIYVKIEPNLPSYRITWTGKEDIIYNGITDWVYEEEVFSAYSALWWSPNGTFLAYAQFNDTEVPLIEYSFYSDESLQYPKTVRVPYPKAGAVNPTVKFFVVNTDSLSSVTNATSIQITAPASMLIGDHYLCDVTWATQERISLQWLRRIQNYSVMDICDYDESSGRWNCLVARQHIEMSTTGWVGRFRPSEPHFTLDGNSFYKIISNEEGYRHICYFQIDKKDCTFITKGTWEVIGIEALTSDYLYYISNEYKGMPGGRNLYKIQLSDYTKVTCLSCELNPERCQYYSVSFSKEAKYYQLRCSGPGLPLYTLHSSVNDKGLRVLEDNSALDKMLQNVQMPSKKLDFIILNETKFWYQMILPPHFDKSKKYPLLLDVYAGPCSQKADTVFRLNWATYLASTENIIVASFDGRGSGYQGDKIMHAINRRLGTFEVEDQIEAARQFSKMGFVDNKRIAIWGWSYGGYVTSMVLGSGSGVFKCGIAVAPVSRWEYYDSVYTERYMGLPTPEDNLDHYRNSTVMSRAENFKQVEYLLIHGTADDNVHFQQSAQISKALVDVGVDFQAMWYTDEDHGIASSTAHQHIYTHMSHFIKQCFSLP

| SMILES | IC50 (DPP-IV enzyme) [µM] | inhibition at 250 µM (DPP-IV enzyme) [%] | IC50 (DPP-IV) [µM] |
| --- | --- | --- | --- |
| O=c1oc2ccc(S(=O)(=O)Nc3ccccc3)cc2cc1Cl [6a, 3-Chloro-2-oxo-2H-1-benzopyran-6-(N-phenyl)sulfonamide] | 14.5 ± 1.2 | 93.5 ± 2.02 | – |
| O=c1oc2ccc(S(=O)(=O)Nc3ccccn3)cc2cc1Cl [6b, 3-Chloro-2-oxo-N-(pyridin-2-yl)-2H-chromene-6-sulfonamide] | 15.7 ± 0.98 | 91.15 ± 0.9 | – |
| O=c1oc2ccc(S(=O)(=O)Nc3cccnc3)cc2cc1Cl [6c, 3-Chloro-2-oxo-N-(pyridin-3-yl)-2H-chromene-6-sulfonamide] | 16.3 ± 2.04 | 90.3 ± 2.04 | – |
| O=c1oc2ccc(S(=O)(=O)Nc3ccncc3)cc2cc1Cl [6d, 3-Chloro-2-oxo-N-(pyridin-4-yl)-2H-chromene-6-sulfonamide] | 15.2 ± 1.02 | 92.4 ± 1.11 | – |
| O=c1oc2ccc(S(=O)(=O)Nc3nc4ccccc4[nH]3)cc2cc1Cl [6i, 3-Chloro-2-oxo-2H-1-benzopyran-6-(N-benzimidazole)sulfonamide] | 11 ± 1 | 95.8 ± 1.08 | – |
| Cc1ccc(NS(=O)(=O)c2ccc3oc(=O)c(Cl)cc3c2)cc1 [6r, 3-Chloro-2-oxo-N-(p-tolyl)-2H-chromene-6-sulfonamide] | 12.92 ± 0.11 | 95.4 ± 1.1 | – |
| Cc1ccccc1NS(=O)(=O)c1ccc2oc(=O)c(Cl)cc2c1 [6s, 3-Chloro-2-oxo-N-(o-tolyl)-2H-chromene-6-sulfonamide] | 18.29 ± 0.1 | 89.3 ± 0.9 | – |
| O=c1oc2ccc(S(=O)(=O)NCc3ccccc3)cc2cc1Cl [6t, N-benzyl-3-chloro-2-oxo-2H-chromene-6-sulfonamide] | 17.73 ± 0.02 | 88.3 ± 2.06 | – |
| O=c1ccc2ccccc2o1 [coumarin] | – | – | 54.8 |
